Source: paper PMC3566787, “Efficient synthesis of phenylene-ethynylene rods and their use as rigid spacers in divalent inhibitors” (Beilstein Journal of Organic Chemistry, 2013)

Biological target: T1, LecA (Pseudomonas aeruginosa, UniProt Q05097)
T1 construct: FITC-labeled LecA
Assay: ELISA-type competition assay on a glycochip: inhibition of FITC-labeled LecA binding to a galactoside-functionalized surface

T1 sequence (Q05097 2-122): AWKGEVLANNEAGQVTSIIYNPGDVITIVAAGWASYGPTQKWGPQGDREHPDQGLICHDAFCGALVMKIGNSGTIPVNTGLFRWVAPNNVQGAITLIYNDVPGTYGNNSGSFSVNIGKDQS

COCCOCCOc1cc(C#Cc2cc(OCCOCCOC)c(-c3cn(CCCO[C@@H]4O[C@H](CO)[C@H](O)[C@H](O)[C@H]4O)nn3)cc2OCCOCCOC)c(OCCOCCOC)cc1C#Cc1cc(OCCOCCOC)c(-c2cn(CCCO[C@@H]3O[C@H](CO)[C@H](O)[C@H](O)[C@H]3O)nn2)cc1OCCOCCOC [compound 22, divalent ligand 22]
IC50: 900 nM
